The values that follow come from patent US20230127326A1, “C3-SUBSTITUTED 1H-PYRAZOLO[4,3-d]PYRIMIDINE COMPOUNDS AS TOLL-LIKE RECEPTOR 7 (TLR7) AGONISTS” (BRISTOL-MYERS SQUIBB COMPANY, priority 2020, published 2023).

SMILES strings stand for the structures.

Usually EC50 stands for the concentration that produces a half-maximal response.

The target of one assay is T1, human TLR7 (Homo sapiens, UniProt Q9NYK1).
T1 construct: host or cells: HEK-Blue TLR7 cells (engineered human embryonic kidney cells)
T1 sequence (Q9NYK1 27-1049): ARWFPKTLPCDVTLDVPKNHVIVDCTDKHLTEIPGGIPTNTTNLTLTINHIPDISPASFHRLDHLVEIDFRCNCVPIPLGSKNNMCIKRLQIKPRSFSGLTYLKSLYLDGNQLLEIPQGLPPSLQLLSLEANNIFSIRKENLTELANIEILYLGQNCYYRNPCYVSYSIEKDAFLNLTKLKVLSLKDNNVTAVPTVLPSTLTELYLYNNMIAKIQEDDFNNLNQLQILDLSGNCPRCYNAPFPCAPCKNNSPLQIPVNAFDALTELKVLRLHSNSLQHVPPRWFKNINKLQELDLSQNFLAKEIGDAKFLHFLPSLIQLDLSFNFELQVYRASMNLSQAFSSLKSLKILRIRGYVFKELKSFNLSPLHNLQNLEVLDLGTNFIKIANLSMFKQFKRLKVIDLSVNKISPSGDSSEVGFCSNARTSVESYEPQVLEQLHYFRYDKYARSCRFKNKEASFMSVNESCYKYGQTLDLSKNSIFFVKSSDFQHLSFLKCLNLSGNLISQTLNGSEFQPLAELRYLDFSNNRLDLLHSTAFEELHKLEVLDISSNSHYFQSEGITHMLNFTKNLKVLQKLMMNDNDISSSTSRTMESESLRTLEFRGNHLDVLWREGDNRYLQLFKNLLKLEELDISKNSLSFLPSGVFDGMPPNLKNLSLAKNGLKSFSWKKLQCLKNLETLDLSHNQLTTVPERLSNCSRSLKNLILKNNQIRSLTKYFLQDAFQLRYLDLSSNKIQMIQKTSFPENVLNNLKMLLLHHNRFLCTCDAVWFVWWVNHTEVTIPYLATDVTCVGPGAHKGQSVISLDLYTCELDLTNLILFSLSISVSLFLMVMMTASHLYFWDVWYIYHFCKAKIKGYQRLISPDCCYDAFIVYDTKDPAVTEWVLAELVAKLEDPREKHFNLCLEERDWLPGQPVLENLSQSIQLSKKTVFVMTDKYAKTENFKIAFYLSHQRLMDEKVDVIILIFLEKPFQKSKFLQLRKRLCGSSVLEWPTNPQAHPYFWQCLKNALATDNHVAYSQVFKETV
Nature of the assay: Human TLR7 agonist activity reporter assay (HEK-Blue TLR7 cells, SEAP reporter). It is filed as cell-based. Conditions: 18 h treatment, average where assay was performed multiple times, read-out: hTLR7 Agonism EC50. As to the method:
This procedure describes a method for assaying human TLR7 (hTLR7) agonist activity of the compounds disclosed in this specification.
HEK-Blue™ TLR7 cells were added to each well of a 384-well tissue-culture plate (15,000 cells per well) and incubated 16-18 h at 37° C., 5% CO2. Compounds (100 nl) were dispensed into wells containing the HEK-Blue™ TLR cells and the treated cells were incubated at 37° C., 5% CO2. After 18 h treatment ten microliters of freshly-prepared Quanti-Blue™ reagent (Invivogen) was added to each well, incubated for 30 min (37° C., 5% CO2) and SEAP levels measured using an Envision plate reader (OD=620 nm). The half maximal effective concentration values (EC50; compound concentration which induced a response halfway between the assay baseline and maximum) were calculated.
(In general: A reporter such as luciferase makes a cellular process visible.)

The subject of a further assay is CD69. In words: Induction of CD69 in human whole blood. Format: cell-based. The note with it: 17 hrs at 37° C., y-axis 100% set to 1 uM of resiquimod, average where assay was performed multiple times, read-out: hWB CD69 EC50. On the procedure:
The induction of Type I interferon (IFN) MX-1 genes and the B-cell activation marker CD69 are downstream events that occur upon activation of the TLR7 pathway. The following is a human whole blood assay that measures their induction in response to a TLR7 agonist.
Heparinized human whole blood was harvested from human subjects and treated with test TLR7 agonist compounds at 1 mM. The blood was diluted with RPMI 1640 media and Echo was used to predot 10 nL per well giving a final concentration of 1 uM (10 nL in 10 uL of blood). After mixing on a shaker for 30 sec, the plates were covered and placed in a 37° C. chamber for o/n=17 hrs. Fixing/lysis buffer was prepared (5×->1× in H2O, warm at 37° C.; Cat #BD 558049) and kept the perm buffer (on ice) for later use.
For surface markers staining (CD69): prepared surface Abs: 0.045 ul hCD14-FITC (ThermoFisher Cat #MHCD1401)+0.6 ul hCD19-ef450 (ThermoFisher Cat #48-0198-42)+1.5 ul hCD69-PE (cat #BD555531)+0.855 ul FACS buffer. Added 3 ul/well, spin 1000 rpm for 1 min and mixed on shaker for 30 sec, put on ice for 30 mins. Stop stimulation after 30 minutes with 70 uL of prewarmed 1× fix/lysis buffer and use Feliex mate to resuspend (15 times, change tips for each plate) and incubate at 37 C for 10 minutes.
Centrifuge at 2000 rpm for 5 minutes aspirate with HCS plate washer, mix on shaker for 30 sec and then wash with 70 uL in dPBS and pelleted 2×s (2000 rpm for 5 min) and 50 ul wash in FACS buffer pelleted 1×s (2000 rpm for 5 min). Mix on shaker for 30 sec. For Intracellular markers staining (MX-1): Add 50 ul of BD Perm buffer III and mix on shaker for 30 sec. Incubate on ice for 30 minutes (in the dark). Wash with 50 uL of FACS buffer 2× (spin @2300 rpm×5 min after perm) followed by mixing on shaker for 30 sec. Resuspended in 20 ul of FACS buffer containing MX1 antibody ( )(4812)-Alexa 647: Novus Biologicals #NBP2-43704AF647) 20 ul FACS bf+0.8 ul hIgG+0.04 ul MX-1. Spin 1000 rpm for 1 min, mix on shaker for 30 se and the samples were incubated at RT in the dark for 45 minutes followed by washing 2×FACS buffer (spin @2300 rpm×5 min after perm). Resuspend 20 ul (35 uL total per well) of FACS buffer and cover with foil and place in 4° C. to read the following day. Plates were read on iQuePlus. The results were loaded into toolset and […] curves are generated in curve master. The y-axis 100% is set to 1 uM of resiquimod.

As for `CCCCNc1nc(N)nc2c(Br)nn(Cc3ccc(CNC4CCOCC4)cc3OC)c12` [Compound 101, 3-bromo-N7-butyl-1-[(2-methoxy-4-{[(oxan-4-yl)amino]methyl}phenyl)-methyl]-1H-pyrazolo[4,3-d]pyrimidine-5,7-diamine], the EC50 was 2000 nM on human TLR7 and 365 nM with CD69. Taken in the same sequence, the figures for `CCCCNc1nc(N)nc2c(C3CC3)nn(Cc3ccc(CNC4CCOCC4)cc3OC)c12` [Compound 102, N7-butyl-3-cyclopropyl-1-[(2-methoxy-4-{[(oxan-4-yl)amino]methyl}phenyl)-methyl]-1H-pyrazolo[4,3-d]pyrimidine-5,7-diamine] were 210 nM and 34.5 nM. The corresponding values for `CCCCNc1nc(N)nc2c(C)nn(Cc3ccc(CNC4CCC4)cc3OC)c12` [Compound 103, N7-butyl-1-({4-[(cyclobutylamino)methyl]-2-methoxyphenyl}methyl)-3-methyl-1H-pyrazolo[4,3-d]pyrimidine-5,7-diamine] are 101 nM and 15.4 nM. Taken in the same sequence, the figures for `CCCCNc1nc(N)nc2c(C)nn(Cc3ccc(CNC4CCOCC4)cc3OC)c12` [Compound 104, N7-butyl-1-[(2-methoxy-4-{[(oxan-4-yl)amino]methyl}-phenyl)methyl]-3-methyl-1H-pyrazolo[4,3-d]pyrimidine-5,7-diamine] were 91.3 nM and 41.8 nM. As to `CCCCNc1nc(N)nc2c(C)nn(Cc3ccc(CN4CCN(C)CC4)cc3OC)c12` [Compound 105, N7-butyl-1-({2-methoxy-4-[(4-methylpiperazin-1-yl)methyl]phenyl}methyl)-3-methyl-1H-pyrazolo[4,3-d]pyrimidine-5,7-diamine], the EC50 is 62.3 nM on human TLR7 and 9.4 nM in the assay on CD69. The corresponding values for `CCCCNc1nc(N)nc2c(C)nn(Cc3ccc(CN4CCN(CCO)CC4)cc3OC)c12` [Compound 106, 2-{4-[(4-{[5-amino-7-(butylamino)-3-methyl-1H-pyrazolo[4,3-d]pyrimidin-1-yl]methyl}-3-methoxy-phenyl)methyl]piperazin-1-yl}ethan-1-ol] are 63.3 nM and 20.6 nM. The corresponding values for `CCCCNc1nc(N)nc2c(F)nn(Cc3ccc(CNC4CCC4)cc3OC)c12` [Compound 107, N7-butyl-1-({4-[(cyclobutylamino)methyl]-2-methoxyphenyl}methyl)-3-fluoro-1H-pyrazolo[4,3-d]pyrimidine-5,7-diamine] are 46.5 nM and 28.4 nM. The corresponding values for `CCCCNc1nc(N)nc2c(F)nn(Cc3ccc(CNC4CCOCC4)cc3OC)c12` [Compound 108, N7-butyl-3-fluoro-1-[(2-methoxy-4-{[(oxan-4-yl)amino]methyl}phenyl)-methyl]-1H-pyrazolo[4,3-d]pyrimidine-5,7-diamine] are 72 nM and 87.2 nM.

`CCCCNc1nc(N)nc2c(F)nn(Cc3ccc(CN4CCN(C)CC4)cc3OC)c12` [Compound 109, N7-butyl-3-fluoro-1-({2-methoxy-4-[(4-methyl-piperazin-1-yl)methyl]-phenyl}methyl)-1H-pyrazolo[4,3-d]pyrimidine-5,7-diamine]: the EC50 stood at 12.1 nM on human TLR7 and 8.4 nM in the assay on CD69.

Take `CCCCNc1nc(N)nc2c(F)nn(Cc3ccc(CN4CCN(CCO)CC4)cc3OC)c12` [Compound 110, 2-{4-[(4-{[5-amino-7-(butylamino)-3-fluoro-1H-pyrazolo[4,3-d]pyrimidin-1-yl]methyl}-3-methoxyphenyl)methyl]-piperazin-1-yl}ethan-1-ol]: the EC50 on human TLR7 was 22.9 nM; in the assay on CD69, 44.9 nM. The corresponding values for `CCCCNc1nc(N)nc2c(Cl)nn(Cc3ccc(CNC4CCOCC4)cc3OC)c12` [Compound 111, N7-butyl-3-chloro-1-[(2-methoxy-4-{[(oxan-4-yl)amino]methyl}phenyl)-methyl]-1H-pyrazolo[4,3-d]pyrimidine-5,7-diamine] are 1410 nM and 97 nM.

Take `CCCCNc1nc(N)nc2c(-c3ccncc3)nn(Cc3ccc(CNC4CCOCC4)cc3OC)c12` [Compound 112, N7-butyl-1-[(2-methoxy-4-{[(oxan-4-yl)amino]-methyl}phenyl)methyl]-3-(pyridin-4-yl)-1H-pyrazolo[4,3-d]pyrimidine-5,7-diamine]: the EC50 at human TLR7 came to 2430 nM; in the assay on CD69, 1000 nM. Consider `CCCCNc1nc(N)nc2c(-c3ccccc3)nn(Cc3ccc(CNC4CCOCC4)cc3OC)c12` [Compound 113, N7-butyl-1-[(2-methoxy-4-{[(oxan-4-yl)amino]methyl}-phenyl)methyl]-3-phenyl-1H-pyrazolo[4,3-d]pyrimidine-5,7-diamine], for which the EC50 in the assay on CD69 was 1000 nM. Turning to `CCCCNc1nc(N)nc2c(C(F)(F)F)nn(Cc3ccc(CNC4CCOCC4)cc3OC)c12` [Compound 117, N7-butyl-1-[(2-methoxy-4-{[(oxan-4-yl)amino]methyl}-phenyl)methyl]-3-(trifluoro-methyl)-1H-pyrazolo[4,3-d]pyrimidine-5,7-diamine], in the assay with CD69, the EC50 was found to be 1000 nM. Turning to `CCC[C@@H](CCO)Nc1nc(N)nc2c(C)nn(Cc3ncc(CN4CCN(CCO)CC4)cc3OC)c12` [Compound 135, (3S)-3-({5-amino-1-[(5-{[4-(2-hydroxyethyl)piperazin-1-yl]methyl}-3-methoxypyridin-2-yl)methyl]-3-methyl-1H-pyrazolo[4,3-d]pyrimidin-7-yl}amino)hexan-1-ol], the EC50 at human TLR7 turned out to be 1110 nM. Same read-out and setting: the same measure for `CCCCNc1nc(N)nc2c(C)nn(Cc3ccc(CN4CCN(CCOC)CC4)cc3OC)c12` [Compound 136, N7-butyl-1-[(2-methoxy-4-{[4-(2-methoxyethyl)piperazin-1-yl]methyl}phenyl)methyl]-3-methyl-1H-pyrazolo[4,3-d]pyrimidine-5,7-diamine]: 163 nM; for `CCCCNc1nc(N)nc2c(C)nn(Cc3ccc(CN4CCN(CC(C)(C)O)CC4)cc3OC)c12` [Compound 137, 1-{4-[(4-{[5-amino-7-(butylamino)-3-methyl-1H-pyrazolo[4,3-d]pyrimidin-1-yl]methyl}-3-methoxyphenyl)methyl]piperazin-1-yl}-2-methylpropan-2-ol]: 65.8 nM.
